The source of these data is patent US20120035268A1, “SPHINGO-GUANIDINES AND THEIR USE AS INHIBITORS OF SPHINGOSINE KINASE” (priority 2008, published 2012).

Experiment [1] has as its target sphingosine kinase 1 (SK1) (Homo sapiens, UniProt Q9NYA1). As to the kind of experiment: In vitro inhibition of purified recombinant sphingosine kinase 1. Type of experiment: biochemical. As to conditions: purified recombinant enzyme.
The target in experiment [2] is T1, sphingosine kinase 2 (SK2) (Homo sapiens, UniProt Q9NRA0).
T1 sequence (Q9NRA0 1-654): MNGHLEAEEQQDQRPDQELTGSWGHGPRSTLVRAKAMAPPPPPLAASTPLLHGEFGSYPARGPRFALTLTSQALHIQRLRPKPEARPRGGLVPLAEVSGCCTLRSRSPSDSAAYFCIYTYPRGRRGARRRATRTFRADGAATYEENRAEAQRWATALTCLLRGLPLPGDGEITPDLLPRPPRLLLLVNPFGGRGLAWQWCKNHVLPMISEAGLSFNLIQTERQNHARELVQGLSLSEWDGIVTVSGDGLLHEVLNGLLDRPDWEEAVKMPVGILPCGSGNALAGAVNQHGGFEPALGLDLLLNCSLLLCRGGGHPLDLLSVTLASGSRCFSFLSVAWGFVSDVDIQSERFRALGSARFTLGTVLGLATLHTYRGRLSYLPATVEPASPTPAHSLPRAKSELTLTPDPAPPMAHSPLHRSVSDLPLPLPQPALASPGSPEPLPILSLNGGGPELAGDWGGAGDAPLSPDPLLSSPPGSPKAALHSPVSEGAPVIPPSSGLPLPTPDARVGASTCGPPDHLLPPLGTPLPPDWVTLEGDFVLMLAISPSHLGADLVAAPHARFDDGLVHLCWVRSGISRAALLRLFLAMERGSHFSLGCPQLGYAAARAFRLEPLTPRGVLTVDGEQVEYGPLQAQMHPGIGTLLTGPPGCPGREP
As to the kind of experiment: In vitro inhibition of purified recombinant sphingosine kinase 2. Type of experiment: biochemical. As to conditions: purified recombinant enzyme.

Experiment [3] deals with prostate cancer (DU145) cells over-expressing acid ceramidase. Briefly: BD FALCON FLUOROBLOK migration assay. As to conditions: 5 μM pretreatment overnight; 16/24 hours incubation; FIG. 8. It counts as cell-based, human. How it is done:
NT represents non-treated cells.
The presently disclosed guanidino-sphingosines were determined to be capable of inhibiting cell migration of cancer cells overexpressing acid ceramidase. The BD™ FALCON™ (Becton Dickinson and Company, Franklin Lakes, N.J., United States of America) migration assay (using FLUOROBLOK™ polyethylene terphthalate (PET) inserts (8.0 μm)) was performed with prostate cancer (DU145) cells over-expressing acid ceramidase. […] After labeling the cells with carboxyfluorescein diacetate succinimidyl ester fluorscent dye (CFMDA), the cells were seeded on the top well of BDTM FLUOROBLOK™ PET membrane collagen-coated inserts. The negative control consisted of serum free media loaded in the bottom well and 10% FCS-enriched media was used as the positive control. After 16/24 hours incubation, the plate was read from the bottom (485/530 nm) and fluorescence was quantified.

Experiment [4] has as its system MCF7 cells. As to the kind of experiment: Endogenous ceramide level in cells after treatment. It counts as cell-based, human. The following applies: 24 hour treatment, 0-25 μM, FIG. 7. From the text:
The administration of guanidino-sphingosines to mammalian cells at concentrations capable of inhibiting SK1 or SK2 were also found to increase the level of endogenous Cer in the cells.

A word on the IC50: it is the midpoint of a concentration-inhibition curve.

Structures are written as SMILES. Where a name gives a salt, the structure may show the parent alone. Read-outs that look alike come from different tables or passages of the source.

Sequence of sphingosine kinase 1 (SK1) (Q9NYA1 whole entry, species assumed): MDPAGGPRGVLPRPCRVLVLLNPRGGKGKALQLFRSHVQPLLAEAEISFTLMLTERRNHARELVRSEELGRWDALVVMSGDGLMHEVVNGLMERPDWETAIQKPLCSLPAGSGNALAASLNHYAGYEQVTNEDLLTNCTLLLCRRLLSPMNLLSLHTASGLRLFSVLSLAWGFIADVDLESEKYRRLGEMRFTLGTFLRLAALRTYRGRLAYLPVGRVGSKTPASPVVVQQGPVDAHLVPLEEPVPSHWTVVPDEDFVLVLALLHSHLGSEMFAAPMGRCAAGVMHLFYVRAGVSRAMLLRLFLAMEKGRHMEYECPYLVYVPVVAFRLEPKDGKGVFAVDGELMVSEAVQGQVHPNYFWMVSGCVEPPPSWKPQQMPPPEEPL

For `CCCCCCCCCCCCC/C=C/[C@H](O)[C@@H](CO)NC(=N)N` [LCL351, L-erythro-2-N-(1′-carboxamidino)-sphingosine hydrochloride], the figures for the IC50 in experiment [1] (read-out: IC50 on SK1) and in experiment [2] were 0.04 µM and 0.3 µM, respectively. Besides, in experiment [3], the “migration rate of DU145 cells” value is listed as “decreases the migration rate”. The “endogenous C16-ceramide levels” value in experiment [4] is reported as “elevation”.

Take `CCCCCCCCCCCCC/C=C/[C@@H](O)[C@H](CO)NC(=N)N` [LCL146, D-erythro-2-N-(1′-carboxamidino)-sphingosine hydrochloride]: the IC50 in experiment [1] (read-out: In Vitro IC50 on Sphingosine Kinase 1) turned out to be 0.42 µM; in experiment [2] it was 0.74 µM. The “endogenous C16-ceramide levels” value in experiment [4] is listed as “elevation”.
